Target: T1, human complement factor D (Homo sapiens, UniProt P00746)
T1 construct: purchased R&D Systems 1824-SE
Test: In vitro enzyme inhibition (Z-Lys-SBzl/DTNB absorbance assay)
Format: biochemical
Conditions: Complement Factor D (R&D Systems), substrate Z-Lys-SBzl, A405 nm; read-out: CFD IC50
Procedure: The ability of the compounds disclosed herein to inhibit human complement factor D inhibitory activity was quantified according to the 12-step protocol provided below. • 1. Prepare assay buffer: 50 mM Tris/HCl, pH 7.5, 1 M NaCl. • 2. Dilute 10 mM Complement Factor D inhibitor Nafamostat Mesilate (Selleckchem, Catalog #S1386) solution from 10000 μM to 9.77 μM in 100% DMSO, 8 concentrations. Then dilute the serial concentrations of Nafamostat Mesilate 20-fold in assay buffer. • 3. Add 10 μl diluted Nafamostat Mesilate duplicated into each of the inhibitor control well of a 96-well plate (Corning, Catalog #3599). Final concentrations were 50 μM, 25 μM, 12.5 μM, 6.25 μM, 3.125 μM, 0.781 μM, 0.195 μM and 0.049 μM. 0.5% DMSO was in each well finally. • 4. Dilute 20 mM test compounds from 10000 μM to […] in 100% DMSO, 6-fold dilution, 8 concentrations. Then dilute the serial concentrations of test compounds 20-fold in assay buffer. • 5. Add 10 μl diluted test compounds duplicated into the 96-well plate. Final concentrations were 50 μM, 8.33 μM, 1.39 μM, 0.23 μM, 0.0386 μM, 0.0064 μM, 0.0011 μM and 0.0002 μM. 0.5% DMSO was in each well finally. • 6. Dilute 20 mM substrate Z-Lys-SBzl (Bachem, Cat #M-1300) to 200 μM in assay buffer with 200 μM DTNB(Sigma, Catalog #D8130). • 7. Dilute 738 ng/μL Complement Factor D (R&D Systems, Catalog #1824-SE) to 6.25 ng/μL in assay buffer. Add 40 μl diluted Complement Factor D in the 96-well plate. • 8. Positive control well contains Complement Factor D without test compound. Negative control well contains neither Complement Factor D nor test compound. Using assay buffer, bring the total volume of all controls to 50 μl. • 9. Pre-incubate the plate for 5 min at room temperature. • 10. Add 50 μl of diluted substrate/DTNB mixture into each well. Mix the reagents completely by shaking the plate gently for 30 sec. • 11. For kinetic reading: Immediately start measuring absorbance (A405 nm) continuously and record data every 30sec for 60 min. • 12. Data analysis • Inhibition activity of compound was evaluated by IC50. IC50 was calculated according the dose-response curve of compound fitted using GraphPadPrism with “log(inhibitor)-response (variable slope)” equation. • % inhibition was calculated by using following equation:
[formula] • Mean(NC): The average value of the negative control wells' A405 nm values. • Mean(PC): The average value of the positive control wells' A405 nm values.
The ability of the compounds in Table 2 to inhibit human complement factor D inhibitory activity was determined.

T1 sequence (P00746 26-253): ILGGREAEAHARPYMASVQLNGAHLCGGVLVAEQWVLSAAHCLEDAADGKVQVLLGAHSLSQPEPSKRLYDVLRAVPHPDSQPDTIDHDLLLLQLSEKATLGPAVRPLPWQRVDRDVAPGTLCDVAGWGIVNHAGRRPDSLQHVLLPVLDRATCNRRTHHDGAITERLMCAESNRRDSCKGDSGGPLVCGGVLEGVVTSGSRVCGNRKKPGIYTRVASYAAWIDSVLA

IC50	SMILES
100 to 1000 nM	CC(=O)c1nn(CC(=O)N2[C@@H]3CC[C@@H](C3)[C@H]2C(=O)Nc2cccc(Cl)n2)c2ccc(Cl)cc12 [Example 87, (1R,3S,4S)-2-(2-(3-acetyl-5-chloro-1H-indazol-1-yl)acetyl)-N-(6-chloropyridin-2-yl)-2-azabicyclo[2.2.1]heptane-3-carboxamide]
100 to 1000 nM	NC(=O)c1nn(CC(=O)N2[C@@H]3CC[C@@H](C3)[C@H]2C(=O)Nc2cc(CO)cc(Cl)n2)c2ccccc12 [Example 105, 1-(2-((1R,3S,4S)-3-((6-chloro-4-(hydroxymethyl)pyridin-2-yl)carbamoyl)-2-azabicyclo[2.2.1]heptan-2-yl)-2-oxoethyl)-1H-indazole-3-carboxamide]
> 10000 nM	O=C(O)c1nn(CC(=O)N2[C@@H]3CC[C@@H](C3)[C@H]2C(=O)Nc2cccc(Cl)n2)c2ccccc12 [Example 84, 1-(2-((1R,3S,4S)-3-((6-chloropyridin-2-yl)carbamoyl)-2-azabicyclo[2.2.1]heptan-2-yl)-2-oxoethyl)-1H-indazole-3-carboxylic acid]
100 to 1000 nM	N#Cc1ccc2c(c1)c(C(N)=O)nn2CC(=O)N1[C@@H]2CC[C@@H](C2)[C@H]1C(=O)Nc1cccc(Cl)n1 [Example 81, 1-(2-((1R,3S,4S)-3-((6-chloropyridin-2-yl)carbamoyl)-2-azabicyclo[2.2.1]heptan-2-yl)-2-oxoethyl)-5-cyano-1H-indazole-3-carboxamide]
> 10000 nM	O=C(Nc1cccc(Cl)n1)[C@@H]1[C@H]2CC[C@H](C2)N1C(=O)Cn1nc(C(=O)N2CCC2)c2ccccc21 [Example 86, (1R,3S,4S)-2-(2-(3-(azetidine-1-carbonyl)-1H-indazol-1-yl)acetyl)-N-(6-chloropyridin-2-yl)-2-azabicyclo[2.2.1]heptane-3-carboxamide]
100 to 1000 nM	N#Cc1cc(Cl)nc(NC(=O)[C@@H]2[C@H]3CC[C@H](C3)N2C(=O)Cn2nc(C(N)=O)c3ccccc32)c1 [Example 102, 1-(2-((1R,3S,4S)-3-((6-chloro-4-cyanopyridin-2-yl)carbamoyl)-2-azabicyclo[2.2.1]heptan-2-yl)-2-oxoethyl)-1H-indazole-3-carboxamide]
100 to 1000 nM	CC(=O)c1nn(CC(=O)N2[C@@H]3CC[C@@H](C3)[C@H]2C(=O)Nc2cccc(Cl)n2)c2ccc(F)cc12 [Example 91, (1R,3S,4S)-2-(2-(3-acetyl-5-fluoro-1H-indazol-1-yl)acetyl)-N-(6-chloropyridin-2-yl)-2-azabicyclo[2.2.1]heptane-3-carboxamide]
100 to 1000 nM	NC(=O)c1nn(CC(=O)N2[C@@H]3CC[C@@H](C3)[C@H]2C(=O)Nc2cccc(Cl)n2)c2ccncc12 [Example 95, 1-(2-((1R,3S,4S)-3-((6-chloropyridin-2-yl)carbamoyl)-2-azabicyclo[2.2.1]heptan-2-yl)-2-oxoethyl)-1H-pyrazolo[4,3-c]pyridine-3-carboxamide]
1000 to 10000 nM	NC(=O)c1nn(CC(=O)N2[C@@H]3CC[C@@H](C3)[C@H]2C(=O)NC(CC(=O)O)c2cccc(Cl)c2F)c2ccccc12 (stereo partly drawn) [Example 143, 3-((1R,3S,4S)-2-(2-(3-carbamoyl-1H-indazol-1-yl)acetyl)-2-azabicyclo[2.2.1]heptane-3-carboxamido)-3-(3-chloro-2-fluorophenyl)propanoic acid]

Continued, compound first:

SMILES	IC50
NC(=O)Cc1ccc2c(c1)c(C(N)=O)nn2CC(=O)N1[C@@H]2CC[C@@H](C2)[C@H]1C(=O)NCc1cccc(Cl)c1F [Example 133, 5-(2-amino-2-oxoethyl)-1-(2-((1R,3S,4S)-3-((3-chloro-2-fluorobenzyl)carbamoyl)-2-azabicyclo[2.2.1]heptan-2-yl)-2-oxoethyl)-1H-indazole-3-carboxamide]	1000 to 10000 nM
NC(=O)c1nn(CC(=O)N2[C@@H]3CC[C@@H](C3)[C@H]2C(=O)NCc2cc(F)cc(Cl)c2)c2ccccc12 [Example 64, 1-(2-((1R,3S,4S)-3-((3-chloro-5-fluorobenzyl)carbamoyl)-2-azabicyclo[2.2.1]heptan-2-yl)-2-oxoethyl)-1H-indazole-3-carboxamide 2,2,2-trifluoroacetate]	100 to 1000 nM
NC(=O)c1nn(CC(=O)N2CCOC[C@H]2C(=O)Nc2cccc(Cl)n2)c2ccccc12 [Example 22, (S)-4-(2-(3-carbamoyl-1H-indazol-1-yl)acetyl)-N-(6-chloropyridin-2-yl)morpholine-3-carboxamide]	1000 to 10000 nM
NC(=O)c1nn(CC(=O)N2[C@@H]3CC[C@@H](C3)[C@H]2C(=O)NCc2cccc(Cl)c2F)c2cc(CCO)ccc12 [Example 129, 1-(2-((1R,3S,4S)-3-((3-chloro-2-fluorobenzyl)carbamoyl)-2-azabicyclo[2.2.1]heptan-2-yl)-2-oxoethyl)-6-(2-hydroxyethyl)-1H-indazole-3-carboxamide]	1000 to 10000 nM
NC(=O)c1nn(CC(=O)N2CC3CC2(C(=O)Nc2cccc(Cl)c2F)C3)c2ccccc12 [Example 150, 2-(2-(3-carbamoyl-1H-indazol-1-yl)acetyl)-N-(3-chloro-2-fluorophenyl)-2-azabicyclo[2.1.1]hexane-1-carboxamide]	> 10000 nM
NC(=O)c1nn(CC(=O)N2[C@H](C(=O)Nc3ccnc(Cl)c3)C[C@@H]3CCC[C@@H]32)c2ccccc12 [Example 163, 1-(2-((2S,3aS,6aS)-2-((2-chloropyridin-4-yl)carbamoyl)hexahydrocyclopenta[b]pyrrol-1(2H)-yl)-2-oxoethyl)-1H-indazole-3-carboxamide]	> 10000 nM
NC(=O)c1nn(CC(=O)N2[C@H](C(=O)Nc3cccc(Cl)n3)C[C@@H]3CCC[C@@H]32)c2cc(Cl)ccc12 [Example 182, 6-chloro-1-(2-((2S,3aS,6aS)-2-((6-chloropyridin-2-yl)carbamoyl)hexahydrocyclopenta[b]pyrrol-1(2H)-yl)-2-oxoethyl)-1H-indazole-3-carboxamide]	100 to 1000 nM
NC(=O)c1nn(CC(=O)N2[C@@H]3CC[C@@H](C3)[C@H]2C(=O)NCc2cc3c(Cl)c[nH]c3cc2F)c2ccccc12 [Example 198, 1-(2-((1R,3S,4S)-3-(((3-chloro-6-fluoro-1H-indol-5-yl)methyl)carbamoyl)-2-azabicyclo[2.2.1]heptan-2-yl)-2-oxoethyl)-1H-indazole-3-carboxamide]	> 10000 nM
NC(=O)c1nn(CC(=O)N2[C@@H]3CC[C@@H](C3)[C@H]2C(=O)NCc2cc(Br)cc(Cl)c2F)c2ccccc12 [Example 109, 1-(2-((1R,3S,4S)-3-((5-bromo-3-chloro-2-fluorobenzyl)carbamoyl)-2-azabicyclo[2.2.1]heptan-2-yl)-2-oxoethyl)-1H-indazole-3-carboxamide]	100 to 1000 nM
NC(=O)c1nn(CC(=O)N2[C@H](C(=O)Nc3cccc(Cl)n3)C[C@@H]3CCC[C@@H]32)c2cnccc12 [Example 177, 1-(2-((2S,3aS,6aS)-2-((6-chloropyridin-2-yl)carbamoyl)hexahydrocyclopenta[b]pyrrol-1(2H)-yl)-2-oxoethyl)-1H-pyrazolo[3,4-c]pyridine-3-carboxamide]	100 to 1000 nM
CC(O)c1nn(CC(=O)N2[C@H](C(=O)Nc3cccc(Cl)n3)C[C@@H]3CCC[C@@H]32)c2ccccc12 (stereo partly drawn) [Example 181, (2S,3aS,6aS)-N-(6-chloropyridin-2-yl)-1-(2-(3-(1-hydroxyethyl)-1H-indazol-1-yl)acetyl)octahydrocyclopenta[b]pyrrole-2-carboxamide]	1000 to 10000 nM
COC(=O)C(NC(=O)[C@@H]1[C@H]2CC[C@H](C2)N1C(=O)Cn1nc(C(N)=O)c2ccccc21)c1cccc(Cl)c1F (stereo partly drawn) [Example 136, methyl 2-((1R,3S,4S)-2-(2-(3-carbamoyl-1H-indazol-1-yl)acetyl)-2-azabicyclo[2.2.1]heptane-3-carboxamido)-2-(3-chloro-2-fluorophenyl)acetate]	1000 to 10000 nM
NC(=O)c1nn(CC(=O)N2C(C(=O)NCc3cccc(Cl)n3)[C@@H]3C[C@@H](O)[C@H]2[C@H]3O)c2ccccc12 (stereo partly drawn) [Example 154, 1-(2-((1S,4S,6R,7S)-3-(((6-chloropyridin-2-yl)methyl)carbamoyl)-6,7-dihydroxy-2-azabicyclo[2.2.1]heptan-2-yl)-2-oxoethyl)-1H-indazole-3-carboxamide]	1000 to 10000 nM
